Experimental data from patent US10617695B2, “Ophthalmic compositions containing alcaftadine” (Vistakon Pharmaceuticals, LLC, priority 2006, dated 2020).
Marks after values point to notes of the source that are not given here.

Assays:
[1] = Chemical stability of alcaftadine solution in non-sterilized or gamma irradiated LDPE bottles and glass vials (HPLC); assay type: physicochemical
Text: The existence of the N-oxide structures as the primary oxidative degradation peak was confirmed as having the same HPLC relative retention time as a synthetically produced N-oxide structures and also confirmed using mass spectroscopy.
To investigate the effects of the gamma irradiation process used to sterilize the LDPE bottles, the chemical stability of alcaftadine was studied using different lots of bottles, either gamma irradiated or non-sterilized.
The following materials were used in this study.
2.5 mg/ml alfactadine solution
Non-sterilized 5 ml LDPE bottles (DUPONT 20-6064) from Bunder Glas GmbH (Germany)
Non-sterilized 5 ml LDPE bottles (DUPONT 20-6064) from Rexam (France)
Sterilized (gamma irradiated at 25 kGy) LDPE bottles (DUPONT 20-6064) from Bunder Glas GmbH
Scintillation vials—20 ml clear glass with Teflon coated cap Millex GV syringe filter unit
Chemical stability results for alcaftadine solution stored in either non-sterilized bottles (Rexam or Bunder Glas) or gamma-irradiated bottles (Bunder Glas) are summarized in Table 2. All samples were assayed by HPLC after 6 and 14 days of storage at 50° C. Light exposure was not controlled during storage. The solution was stored in either Rexam bottles (without sterilization), Bunder Glas bottles (sterilized with y Irradiation or without sterilization) and in glass vials.

[2] = Chemical stability of alcaftadine solution in ethylene oxide sterilized LDPE bottles; assay type: physicochemical
Description: Both non-sterilized Rexam and Bunder Glas bottles were sterilized using ethylene oxide. Stability studies were initiated and ethylene oxide levels determined to be <1 ppm (under ambient conditions) using a water extraction test method (ANSI/AAMI/ISO: 10993-7) by AppTec (Marietta, Ga.).
The 2.5 mg/ml alcaftadine solution was used in this study.
The chemical stability results for alcaftadine stored in ethylene oxide sterilized Rexam and Bunder Glas bottles are summarized in Table 4.

[3] = molecular target: T1, human histamine H4 receptor (Homo sapiens, UniProt Q9H3N8); assay: H4 receptor antagonist assay: shift of histamine EC50, Schild plot, in transfected SK-N-MC cells; assay type: cell-based
T1 construct: express a reporter gene construct and the human H4 receptor full-coding region; expressed in transfected cells; host or cells: SK-N-MC cells with a CRE-beta-galactosidase reporter
Description: Alcaftadine and 6,11-dihydro-11-(1-methyl-4-piperdinylidene)-5H-imidazo[2,1-b][3]benazepine-3-carboxylic acid (CAS #147083-93-0) were prepared at 10 mM in 100% dimethylsulfoxide (DMSO) for the binding assays and at 10 mM in Na/K phosphate buffer, pH 7.0, for the cellular assays. Cell pellets from SK-N-MC cells transfected with human H4 receptor were homogenized in 20 mM Tris-HCl/0.5 mM ethylendediaminetetraacetic acid (EDTA) pH 8.0 (TE buffer). Supernatants collected after centrifugation at 800 g were recentrifuged at 30,000 g for 30 min. Pellets were re-homogenized in TE buffer. […] Non-specific binding was defined with 100 μM cold histamine. […] Seven concentrations of compound were tested spanning 10^−11 to 10^−5 M with each concentration being run in triplicate. […] This assay was run twice and the results are reported as the average of the two runs. SK-N-MC cell lines were created that express a reporter gene construct and the human H4 receptor full-coding region. The reporter gene was β-galactosidase under the control of cyclic adenosine monophosphate (cAMP) responsive elements. Cells were plated in 96-well plates the night before the assay. Antagonists were added 10 min prior to the addition of histamine, which was added directly to the cell medium. Forskolin (5 μM final concentration) was added 10 min after the addition of histamine. Cells were returned to the incubator for 6 h at 37° C. The medium was then aspirated and cells were lysed with 25 μL of 0.1× assay buffer (10 mM sodium phosphate, pH 8, 0.2 mM MgSO4, 0.01 mM MnCl2) and incubated at room temperature for 10 min. […] Color was quantitated on a microplate reader at absorbance 570 nm. […]
To test whether alcaftadine or 6,11-dihydro-11-(1-methyl-4-piperdinylidene)-5H-imidazo[2,1-b][3]benazepine-3-carboxylic acid (CAS #147083-93-0) were antagonists of the H4 receptor, the ability of the compounds shift the EC50 of the histamine inhibition of forskolin-induced cAMP increases was assessed in SK-N-MC cells transfected with the human histamine H4 receptor. […]

[4] = Bunder Glas bottles, Y Irradiation (gamma, 25 kGy), 50° C., 6 days
[5] = Bunder Glas bottles, Y Irradiation (gamma, 25 kGy), 50° C., 14 days
[6] = Bunder Glas bottles, no sterilization, 50° C., 6 days
[7] = Bunder Glas bottles, no sterilization, 50° C., 14 days
[8] = Rexam bottles, no sterilization, 50° C., 6 days
[9] = Rexam bottles, no sterilization, 50° C., 14 days
[10] = Bunder Glas bottles, Ethylene Oxide, 5 days at 50° C.
[11] = Bunder Glas bottles, Ethylene Oxide, 14 days at 50° C.
[12] = Rexam bottles, Ethylene Oxide, 5 days at 50° C.
[13] = Rexam bottles, Ethylene Oxide, 14 days at 50° C.

T1 sequence (Q9H3N8 whole entry): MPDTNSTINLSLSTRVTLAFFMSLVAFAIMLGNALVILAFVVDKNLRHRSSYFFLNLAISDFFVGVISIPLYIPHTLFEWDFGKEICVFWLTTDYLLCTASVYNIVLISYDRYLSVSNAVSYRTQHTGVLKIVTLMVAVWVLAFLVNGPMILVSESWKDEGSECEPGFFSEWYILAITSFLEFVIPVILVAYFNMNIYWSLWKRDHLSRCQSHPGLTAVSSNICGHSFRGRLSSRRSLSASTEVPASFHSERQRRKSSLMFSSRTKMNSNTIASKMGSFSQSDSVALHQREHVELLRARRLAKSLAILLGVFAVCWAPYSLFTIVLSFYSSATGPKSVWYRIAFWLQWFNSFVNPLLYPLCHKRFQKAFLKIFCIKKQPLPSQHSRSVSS

## CN1CCC(=C2c3ccccc3CCn3c(C=O)cnc32)CC1 [Alcaftadine, 6,11-dihydro-11-(1-methyl-4-piperidinylidene)-5H-imidazo[2,1-b][3]benzazepine-3-carboxaldehyde]
[1]; 50° C.
  N-oxide formation in gamma irradiated Bunder Glas bottles compared with glass vials and non-sterilized Rexam and Bunder Glas bottles: significantly increased levels of N-oxide formation
[1]; [4]
  Alcaftadine: 2.41 mg/mL
  Oxide: 0.199%
[1]; [5]
  Alcaftadine: 2.39 mg/mL
  Oxide: 0.202%
[1]; [6]
  Alcaftadine: 2.48 mg/mL
  Oxide: 0.018%
[1]; [7]
  Alcaftadine: 2.48 mg/mL
  Oxide: 0.042%
[1]; Glass Vials, 50° C., 6 days
  Oxide: 0.024%
[1]; Glass Vials, 50° C., 6 days, sample showed significant evaporation
  Alcaftadine: 2.57* mg/mL
[1]; Initial Solution
  Alcaftadine: 2.47 mg/mL
  Oxide: 0.02%
[1]; [8]
  Alcaftadine: 2.46 mg/mL
  Oxide: 0.015%
[1]; [9]
  Alcaftadine: 2.48 mg/mL
  Oxide: 0.033%
[1]; primary degradation product N-oxide
  susceptibility to oxidation: susceptible to oxidation
[2]; 14 days of storage at 50° C. under ambient light conditions
  N-oxide levels in ethylene oxide sterilized Bunder Glas bottles versus gamma irradiated bottles: significantly lower N-oxide levels
[2]; [10]
  Alcaftadine: 2.46 mg/mL
  N-Oxide: 0.052%
[2]; [11]
  Alcaftadine: 2.48 mg/mL
  N-Oxide: 0.074%
[2]; Glass Vials, 5 days at 50° C.
  Alcaftadine: 2.48 mg/mL
  N-Oxide: 0.022%
[2]; Glass Vials, 14 days at 50° C.
  Alcaftadine: 2.51 mg/mL
  N-Oxide: 0.028%
[2]; [12]
  Alcaftadine: 2.50 mg/mL
  N-Oxide: 0.018%
[2]; [13]
  Alcaftadine: 2.58 mg/mL
  N-Oxide: 0.025%
[3]; parallel and rightward shifts in the histamine dose response curves
  mode of action at the receptor: competitive antagonist
[3]; x-intercept of the Schild plot
  pA2: 5.6
